# Patent US20050159594A1, “Eplerenone crystal form exhibiting enhanced dissolution rate” (Pharmacia Corporation, priority 1995, published 2005)
# Key:
# Assay type in all cases: physicochemical
# [1] = Slurry conversion / thermodynamic stability of Form H versus Form L
# Method: Approximately 150 mg of Form L eplerenone and 150 mg of Form H eplerenone were added to 5 ml ethyl acetate. The resulting slurry was magnetically stirred at 300 rpm overnight. The next day a sample of the resulting solid was collected by filtration.
# [2] = Intrinsic dissolution rate of eplerenone polymorph samples
# Method: Intrinsic dissolution rates were measured for the following four eplerenone polymorph samples: (i) Form L eplerenone prepared by direct crystallization from acetonitrile using water as an anti-solvent in the same manner as in Example 11, Procedure B; (ii) Form H eplerenone prepared by digestion in ethanol in the same manner as in Example 10, Procedure A, (iii) a mixture of 5% Form H and 95% Form L; and (iv) Form L eplerenone that was micronized to provide the following particle size distribution: 10% by weight of the particles under 9 μm, 50% by weight of the particles under 22 μm, and 90% by weight of the particles under 41 μm.
# Eplerenone in an amount of 150 mg was weighed and placed into a VanKel intrinsic dissolution cavity. The powder was compressed at 8280 kPa using a Carver press to form tablets. The sample was then mounted on the intrinsic dissolution apparatus. The dissolution medium used was 1% sodium dodecyl sulfate (SDS) in HPLC water. All tests were conducted at 37° C. for 2 hours. […] Samples were drawn at determined intervals for the determination of rate of dissolution. […] The samples were analyzed by UV absorbance detection at 243 nm. Intrinsic dissolution rates were calculated from the slope of the linear portion of the concentration versus time profiles corrected for volume and normalized for the surface area of the dissolution tablet (0.5 cm^2).
# [3] = Aqueous solubility of Form L eplerenone; conditions: for solubility: phosphate buffer, pH 7, aqueous, pH 7 (100 mM phosphate buffer)
# Method: The aqueous solubility of Form L eplerenone was measured at pH 7 (100 mM phosphate buffer) at 5, 25 and 40° C. Approximately 30 mg of Form L eplerenone was mixed with approximately 10 ml of buffer to form a slurry of eplerenone at both 5 and 25° C. Approximately 40 mg of […] eplerenone was mixed with approximately 10 ml of buffer to form a slurry of eplerenone at 40° C. Samples were prepared in duplicate for each condition. The slurries were allowed to equilibrate in water shaker baths at the appropriate temperature and the solutions were analyzed for eplerenone content by ultraviolet visible analysis (245 nm) at time intervals of 1, 5, 12, 19, 27 and 36 days. Data from each temperature were appropriately averaged to determine the solubility of eplerenone at each temperature and are reported in Table 8.
compound,measurement,setting,value
"COC(=O)[C@@H]1CC2=CC(=O)CC[C@]2(C)[C@@]23O[C@@H]2C[C@@]2(C)C(CC[C@@]24CCC(=O)O4)C13 (some centres unmarked) [Form H eplerenone, methyl hydrogen 9,11-epoxy-17-hydroxy-3-oxopregn-4-ene-7,21-dicarboxylate, γ-lactone]",Solid form after slurry conversion (XRPD),"[1]; 150 mg Form L + 150 mg Form H in 5 ml ethyl acetate, stirred overnight",entirely composed of Form L eplerenone
same,"Intrinsic dissolution rate, comparison in words","[2]; 1% SDS in HPLC water, 37 °C, 2 hours, compressed tablet 0.5 cm^2",faster intrinsic dissolution rate than Form L eplerenone
same,Dissolution rate relative to Form L eplerenone (faster by),"[2]; aqueous medium, temperatures below the enantiotropic transition temperature",approximately 30%
"COC(=O)[C@@H]1CC2=CC(=O)CC[C@]2(C)[C@@]23O[C@@H]2C[C@@]2(C)C(CC[C@@]24CCC(=O)O4)C13 (some centres unmarked) [Form L eplerenone, methyl hydrogen 9,11-epoxy-17-hydroxy-3-oxopregn-4-ene-7,21-dicarboxylate, γ-lactone]","Thermodynamic stability, comparison of polymorphs",[1]; ambient temperatures,more thermodynamically stable than Form H at ambient temperatures
same,"Solid form of residual solids after equilibration (DSC, TGA)","[3]; aqueous slurry pH 7, end of the 36 day equilibration",determined to be Form L eplerenone
same,solubility,[3]; 5 °C,240 µg/mL
same,solubility,[3]; 25 °C,290 µg/mL
same,solubility,[3]; 40 °C,390 µg/mL
